Results reported in PubChem BioAssay (NCI).
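1) Cells in 96-well plates. 2) Compound, 48 h, 5 concentrations. 3) Linear interpolation between surrounding doses. 4) Unreached endpoint = highest concentration. GI50 marks 50% less growth. TGI is the concentration that stops growth completely.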

How the values were obtained:
Assay in all cases: NCI-60 cell line screen, 48 h
NCI-H23 lung = test system: NCI-H23 lung
SR leukemia = test system: SR leukemia
T-47D breast = test system: T-47D breast
SNB-19 CNS = test system: SNB-19 CNS
ACHN renal = test system: ACHN renal
SN12C renal = test system: SN12C renal
SW-620 colon = test system: SW-620 colon
MDA-MB-435 = test system: MDA-MB-435
MCF7 breast = test system: MCF7 breast
OVCAR-8 ovarian = test system: OVCAR-8 ovarian

| Compound | TGI (NCI-H23 lung) [µM] | TGI (SR leukemia) [µM] | TGI (T-47D breast) [µM] | TGI (SNB-19 CNS) [µM] | TGI (ACHN renal) [µM] | TGI (SN12C renal) [µM] | TGI (SW-620 colon) [µM] | TGI (MDA-MB-435) [µM] | TGI (MCF7 breast) [µM] | TGI (OVCAR-8 ovarian) [µM] | GI50 (NCI-H23 lung) [µM] | GI50 (SR leukemia) [µM] | GI50 (T-47D breast) [µM] | GI50 (SNB-19 CNS) [µM] | GI50 (ACHN renal) [µM] | GI50 (SN12C renal) [µM] | GI50 (SW-620 colon) [µM] | GI50 (MDA-MB-435) [µM] | GI50 (MCF7 breast) [µM] | GI50 (OVCAR-8 ovarian) [µM] |
| --- | --- | --- | --- | --- | --- | --- | --- | --- | --- | --- | --- | --- | --- | --- | --- | --- | --- | --- | --- | --- |
| CC1(C)C(=O)/C=C\C(=O)C(C)(C)C(=O)/C=C\C(=O)C(C)(C)C2=CC=C(O2)C(C)(C)C(=O)/C=C\C1=O | 15.6 | 4.05 | 18.5 | 30.6 | 12.6 | 14.1 | 3.59 | 29.3 | 39.8 | 11.6 | – | – | – | – | – | – | – | – | – | – |
| Cc1cc(N2CCOCC2)nc(NCc2cc(Nc3ccnc4cc(Cl)ccc34)ccc2F)n1 | 4.2 | 3.82 | 3.41 | 3.45 | 3.33 | 3.66 | 3.28 | 2.92 | 1.5 | 3.58 | 1.86 | 1.61 | 1.38 | 1.65 | 1.83 | 1.83 | 1.63 | 1.56 | 0.348 | 1.86 |
| Cc1c(-c2ccccn2)ccc2ccccc12 | > 100 | > 100 | > 100 | > 100 | > 100 | > 100 | > 100 | > 100 | > 100 | > 100 | – | – | – | – | – | – | – | – | – | – |
| N=C(CC(=O)Nc1ccccn1)c1ccccc1 | > 100 | > 100 | > 100 | > 100 | > 100 | > 100 | > 100 | > 100 | > 100 | > 100 | – | – | – | – | – | – | – | – | – | – |
| CC(C)(C)[Si](C)(C)OC1[C@@H](COC(=O)NC(=O)CCl)O[C@@H](n2cnc3c(N)ncnc32)[C@H]1O[Si](C)(C)C(C)(C)C (stereo not given in full) | 2.32 | 1.31 | 11.1 | 14.7 | 3.45 | 3.23 | 6.54 | 8.89 | 9 | 4.45 | 1.02 | 0.357 | 4.94 | 7.61 | 1.38 | 1.17 | 1.73 | 2.35 | 2.26 | 1.42 |
